Laboratory results reported in US9221756B2, “Pyrrole derivatives” (priority 2011, dated 2015).

Assays:
[1] = format: in vitro ADME; conditions: human plasma; for [ ] (μM) t0 min. Prodrug (Human) / [ ] (μM) t15 min. Prodrug (Human) / [ ] (μM) t30 min. Prodrug (Human) / [ ] (μM) t60 min. Prodrug (Human) / [ ] (μM) t120 min. Prodrug (Human): 37° C., 10 μM start, prodrug remaining; for [ ] (μM) t15 min. Prodrug (Human): 15 min; for [ ] (μM) t30 min. Prodrug (Human): 30 min; for [ ] (μM) t60 min. Prodrug (Human): 60 min; for [ ] (μM) t120 min. Prodrug (Human): 120 min
Experimental: (§1) The samples were then analysed by LC-MS/MS to obtain the amount of active compound appearing and prodrug derivative remaining over time. The mouse plasma assay system is considered to be a good model for human behaviour. Nevertheless data obtained in a human plasma assay system was obtained in some cases.
(§2) Prodrug derivatives were assessed in the mouse and human plasma stability assay at a concentration of 10 μM. Test compounds were diluted in DMSO to a final stock concentration of 10 mM. For the purpose of the assay, the stocks prepared were further diluted in DMSO to a concentration of 400 μM and […] were added to 195 μl of mouse or human plasma (pH 7.4) and then incubated at 37° C. The final concentration of DMSO in the plate was 2.5% (v/v). Reactions were terminated at 0, 15, 30, 60 and 120 min after incubation by adding 400 μl of acetonitrile containing 0.55 μM metoprolol and 1% (v/v) formic acid. The plate was then centrifuged at 3000 rpm, for 45 min, at 4° C. 80 μl of supernatant were transferred into a conical bottom 96 well glass coated plate. 40 μl of water were added prior to analysis for prodrug derivative and active species by LC-MS/MS. This assay was performed by a contract research organisation, Cyprotex Discovery Limited, UK, at the request of the inventors at Leicester.
(§3) (1) The active compound was quantified using a 6 point calibration curve prepared in deactivated mouse and human plasma. (2) The percentage of parent compound remaining at each time point relative to 0 min sample was calculated from LC-MS/MS peak area ratios (compound peak area/internal standard peak area). This percentage was then used to determine the concentration of the parent compound at each time point in reference to the starting concentration (10 μM) at time 0 min.

[2] = Conversion of prodrug derivatives to active inhibitors in mouse plasma; format: in vitro ADME; conditions: 37° C., 10 μM start, prodrug remaining; for [ ] (μM) t0 min. Prodrug: 0 min; for [ ] (μM) t15 min. Prodrug: 15 min; for [ ] (μM) t30 min. Prodrug: 30 min; for [ ] (μM) t60 min. Prodrug: 60 min; for [ ] (μM) t120 min. Prodrug: 120 min
Experimental: as §1, §2, §3

pneumolysin = pneumolysin (Streptococcus pneumoniae serotype 2, UniProt Q04IN8); test: Inhibition of the haemolytic activity of pneumolysin (sheep erythrocytes); format: cell-based; conditions: class symbols of Table 1
[3] = IC50, inhibition of pneumolysin-induced haemolysis of sheep erythrocytes

Chain of pneumolysin (Q04IN8 whole entry): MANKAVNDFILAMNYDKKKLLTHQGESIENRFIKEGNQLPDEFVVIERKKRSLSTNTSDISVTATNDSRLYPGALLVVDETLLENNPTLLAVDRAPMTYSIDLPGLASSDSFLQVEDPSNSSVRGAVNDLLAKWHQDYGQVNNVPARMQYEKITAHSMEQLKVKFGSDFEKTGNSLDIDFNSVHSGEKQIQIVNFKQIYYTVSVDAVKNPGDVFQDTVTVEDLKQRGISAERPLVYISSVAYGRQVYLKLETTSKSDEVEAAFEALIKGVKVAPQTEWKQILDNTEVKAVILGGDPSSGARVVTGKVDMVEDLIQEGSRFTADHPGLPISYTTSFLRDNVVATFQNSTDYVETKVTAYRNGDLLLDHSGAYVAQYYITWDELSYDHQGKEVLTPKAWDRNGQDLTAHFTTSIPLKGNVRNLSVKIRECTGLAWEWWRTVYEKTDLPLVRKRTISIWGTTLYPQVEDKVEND

| SMILES | [ ] (μM) t0 min. Prodrug (Human) ([1]; 0 min) | [ ] (μM) t15 min. Prodrug (Human) [1] | [ ] (μM) t30 min. Prodrug (Human) [1] | [ ] (μM) t60 min. Prodrug (Human) [1] | [ ] (μM) t120 min. Prodrug (Human) [1] | [ ] (μM) t0 min. Prodrug [2] | [ ] (μM) t15 min. Prodrug [2] | [ ] (μM) t30 min. Prodrug [2] | [ ] (μM) t60 min. Prodrug [2] | [ ] (μM) t120 min. Prodrug [2] | IC50 (pneumolysin; inhibition of pneumolysin-induced haemolysis of sheep erythrocytes) | [ ] (μM) t0 min. Active (Human) (UL1-012) ([1]; 10 μM prodrug, active UL1-012 appearing, 0 min) | IC50 (pneumolysin; [3]) |
| --- | --- | --- | --- | --- | --- | --- | --- | --- | --- | --- | --- | --- | --- |
| CCOC(=O)c1c(O)c(OCOP(=O)(O)O)c(C(=O)N(C)C)n1-c1ccc(OC)cc1 [UL1-109, ethyl 5-(dimethylcarbamoyl)-3-hydroxy-1-(4-methoxyphenyl)-4-((phosphonooxy)methoxy)-1H-pyrrole-2-carboxylate] | 10 µM | 6.22 µM | 5.37 µM | 3.39 µM | 1.72 µM | 10 µM | 6.87 µM | 4.84 µM | 2.45 µM | 0.73 µM | > 60 µM |  |  |
| CCOC(=O)c1c(OC(=O)C(C)(C)COCCOCCOC)c(OC(=O)C(C)(C)COCCOCCOC)c(C(=O)N(C)C)n1-c1ccc(OC)cc1 [UL1-111, 2-(dimethylcarbamoyl)-5-(ethoxycarbonyl)-1-(4-methoxyphenyl)-1H-pyrrole-3,4-diyl bis(3-(2-(2-methoxyethoxy)ethoxy)-2,2-dimethylpropanoate)] | 10 µM | 2.84 µM | 0.80 µM | 0.09 µM | 0.00 µM | 10 µM | 4.74 µM | 2.47 µM | 1.16 µM | 0.47 µM |  | <LOQ | < 10 µM |
| COc1ccc(-n2c(C(=O)N(C)C)c(OC(=O)C(C)C)c(OC(=O)C(C)C)c2C(=O)N(C)C)cc1 [UL1-114, 2,5-bis(dimethylcarbamoyl)-1-(4-methoxyphenyl)-1H-pyrrole-3,4-diyl bis(2-methylpropanoate)] | 10 µM | 9.53 µM | 9.48 µM | 8.22 µM | 7.22 µM | 10 µM | 0 µM | 0 µM | 0 µM | 0 µM |  |  | 10 to 20 µM |
| CCOC(=O)c1c(OCOP(=O)(O)O)c(O)c(C(=O)N(C)C)n1-c1ccc(OC)cc1 [UL1-115, ethyl 5-(dimethylcarbamoyl)-4-hydroxy-1-(4-methoxyphenyl)-3-((phosphonooxy)methoxy)-1H-pyrrole-2-carboxylate] | 10 µM | 10.8 µM | 9.41 µM | 6.69 µM | 2.98 µM | 10 µM | 7.56 µM | 4.04 µM | 1.54 µM | 0.38 µM |  |  | 20 to 60 µM |
| CCOC(=O)c1c(OC(=O)C(C)(C)COCCOCCOP(=O)(O)O)c(OC(=O)C(C)(C)COCCOCCOP(=O)(O)O)c(C(=O)N(C)C)n1-c1ccc(OC)cc1 [UL1-117, 2-(dimethylcarbamoyl)-5-(ethoxycarbonyl)-1-(4-methoxyphenyl)-1H-pyrrole-3,4-diyl bis(2,2-dimethyl-3-(2-(2-(phosphonooxy)ethoxy)ethoxy)propanoate)] | 10 µM | 14.9 µM | 10.1 µM | 4.28 µM | 1.12 µM | 10 µM | 5.92 µM | 4.26 µM | 1.41 µM | 0.21 µM |  |  | 10 to 20 µM |
